Experimental data taken from patent US20090186832A1 (priority 2008, published 2009).
Structures can show the parent of a compound that is named as a salt. Where two headings read alike, the source gives them in different places.

What was measured:
[1] = dog, in vivo, po
in vivo [2] = details: beagle, dog, po, 1 mg, Meptazinol AUCt
[3] = dog, in vivo
in vivo [4] = details: dog
[5] = cited from earlier work

## CCC1(c2cccc(O)c2)CCCCN(C)C1 (centres unmarked) [Meptazinol HCl]
[1]
  AUC (mean ngh/mL ± SD): 15.6 ± 7.4
In vivo [2]
  AUC(0-t): 5.87 ng·h/mL

## CC(C)[C@H](NC(=O)Oc1ccc2c3c1OC1C(=O)CC[C@@]4(O)[C@@H](C2)N(C)CC[C@]314)C(=O)O (stereo partly drawn) [Oxymorphone valine carbamate HCl, (S)-2-[(4,5-Epoxy-14-hydroxy-17-methylmorphinan-6-one-3-yl)-oxycarbonylamino]-3-methylbutanoic acid Hydrochloride]
[3]; Beagle, 0.5 mg/kg
  Mean relative bioavailability %: 816%
[3]; Beagle, po, 0.5 mg/kg
  Cmax (mean ng/mL ± SD): 21.6 ± 7.2 ng/mL
[3]; beagle, po
  plasma levels of the prodrug relative to the drug itself: approx. 4 fold
[3]; po
  AUC (mean ngh/mL ± SD): 94.4 ± 33.3
  time for which plasma drug levels were maintained above 50% of Cmax, prodrug vs drug itself: almost twice as long
In vivo [4]; Beagle, po, 0.5 mg, Oxymorphone valine carbamate AUC
  AUC: 234 ng·h/mL
In vivo [4]; Beagle, po, 0.5 mg, Oxymorphone valine carbamate AUCt
  AUC(0-t): 232 ng·h/mL
In vivo [4]; Beagle, po, 0.5 mg, Oxymorphone valine carbamate Cmax
  Cmax: 75 ng/mL

## CN1CC[C@]23c4c5ccc(O)c4O[C@H]2C(=O)CC[C@@]3(O)[C@H]1C5 [oxymorphone, 14-hydroxydihydromorphinone]
In vivo [4]; iv, intravenous AUC value
  AUC: 146 ng·h/mL
[5]; Adams and Ahdieh (2005)
  half life: ~7 h
[5]; Opana FDA labeling
  food effect: increase of Cmax values: ≤ 38%
[5]; Sloan et al. (2005)
  absolute oral bioavailability: 10%
